Laboratory results from patent US9493468B2, “Antifungal 5,6-dihydro-4H-pyrrolo[1,2-a][1,4]benzo-diazepines and 6H-pyrrolo[1,2-a][1,4]benzodiazepines substituted with heterocyclic derivatives” (Janssen Pharmaceutica NV, priority 2011, dated 2016).

Tests used:
Type in all cases: cell-based
Aspergillus fumigatus = assay: Antifungal activity in vitro, resazurin growth inhibition: Aspergillus fumigatus (B42928)
Outline: (§1)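 Compound dilutions, with 64 μM as the highest in-test level, are spotted onto plates, then an inoculum of 10^3 cfu in RPMI-1640 plus 2% glucose (MOPS, pH 7.0±0.1) is added. Plates are incubated at species-dependent time and temperature, up to a week or more at 27° C. for dermatophytes.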

Sporothrix schenkii = assay: Antifungal activity in vitro, resazurin growth inhibition: Sporothrix schenkii (B62482)
Outline: as §1

Microsporum canis = assay: Antifungal activity in vitro, resazurin growth inhibition: Microsporum canis (B68128)
Outline: (§2)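 Fungi (10^3 cfu/well) grown in RPMI-1640 with L-glutamine, 2% glucose, MOPS pH 7.0, against 2- or 4-fold compound dilutions up to 64 μM. Dermatophytes incubated one week or more at 27° C. Growth inhibition read fluorimetrically (λex 550, λem 590 nm) after resazurin addition and further incubation.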

Candida parapsilosis = assay: Antifungal activity in vitro, resazurin growth inhibition: Candida parapsilosis (B66126)
Outline: as §1

Trichophyton rubrum = assay: Antifungal activity in vitro, resazurin growth inhibition: Trichophyton rubrum (B68183)
Outline: as §2

[1] = system: Trichophyton mentagrophytes; assay: Antifungal activity in vitro, resazurin growth inhibition: Trichophyton mentagrophytes (B70554)
Outline: as §2

Cryptococcus neoformans = assay: Antifungal activity in vitro, resazurin growth inhibition: Cryptococcus neoformans (B66663)
Outline: as §1

| Inf. E: Aspergillus fumigatus B42928, pIC50 (Aspergillus fumigatus) | Inf. A: Sporothrix schenkii B62482, pIC50 (Sporothrix schenkii) | Inf. B: Microsporum canis B68128, pIC50 (Microsporum canis) | Inf. D: Candida parapsilosis B66126, pIC50 (Candida parapsilosis) | Inf. C: Trichophyton rubrum B68183, pIC50 (Trichophyton rubrum) | Inf. G: Trichophyton mentagrophytes B70554, pIC50 [1] | Inf. F: Cryptococcus neoformans B66663, pIC50 (Cryptococcus neoformans) | Structure (SMILES) |
| --- | --- | --- | --- | --- | --- | --- | --- |
| <4.19 | <4.19 | 4.91 | <4.19 | 5.58 | 4.80 | 4.38 | CCc1csc(C2=NCc3c(Cl)cccc3-n3cccc32)n1 [Compound 68] |
| <4.19 | <4.19 | 4.71 | <4.19 | 5.09 | <4.19 | <4.19 | CCc1csc(C2=NCc3c(Cl)cc(Cl)cc3-n3cccc32)n1 [Compound 69] |
| <4.19 | 5.42 | 5.83 | <4.19 | 5.55 | 5.78 | 5.00 | CC(C)n1ccc(C2=NCc3cccc(Cl)c3-n3cccc32)cc1=O [Compound 71] |
| <4.49 | <4.49 | 5.61 | <4.49 | 6.05 | <4.49 | <4.49 | CCc1ccc(C2=NCc3c(Cl)cccc3-n3cccc32)nc1 [Compound 72] |
| <4.49 | <4.49 | 5.10 | <4.49 | 6.09 | <4.49 | <4.49 | CCc1ccc(C2=NCc3c(Cl)cc(Cl)cc3-n3cccc32)nc1 [Compound 73] |
| <4.19 | <4.19 | 6.45 | <4.19 | <4.19 | <4.19 | <4.19 | CCc1ccc(C2=NCc3c(ccc(Cl)c3Cl)-n3cccc32)cn1 [Compound 75] |
| 5.42 | <4.19 | 5.41 | 5.07 | 6.18 | 4.47 | <4.19 | Fc1cc(Cl)c2c(c1)-n1cccc1C(c1ccc(Cl)nc1)=NC2 [Compound 78] |
| 5.59 | 5.42 | 5.09 | <4.19 | 5.79 | 5.23 | <4.19 | Fc1cccc2c1CN=C(c1cnc(Cl)c(Cl)c1)c1cccn1-2 [Compound 80] |
| 5.58 | 5.65 | <4.19 | 4.19 | <4.19 | <4.19 | <4.19 | Fc1cc(F)c2c(c1)-n1cccc1C(c1cnc(Cl)c(Cl)c1)=NC2 [Compound 81] |
| <4.19 | <4.19 | 5.42 | <4.19 | 6.19 | 5.33 | <4.19 | Fc1cccc2c1CN=C(c1ccc(C(F)(F)F)nc1)c1cccn1-2 [Compound 90] |
| 5.02 | <4.19 | 5.26 | <4.19 | 6.16 | 5.63 | <4.19 | CC(=O)c1ccc(C2=NCc3c(F)cccc3-n3cccc32)cn1 [Compound 93] |
| <4.49 | <4.49 | <4.49 | <4.49 | 5.17 | 4.58 | <4.49 | Cc1cc(C2=NCc3ccccc3-n3cccc32)ccn1 [Compound 95] |
| 4.40 | <4.19 | 4.80 | <4.19 | 5.10 | 5.00 | <4.19 | Cc1cc(C2=NCc3c(Cl)cccc3-n3cccc32)ccn1 [Compound 96] |
| <4.49 | <4.49 | 4.87 | <4.49 | 5.99 | 4.83 | <4.49 | Cc1cc(C2=NCc3c(C)cccc3-n3cccc32)ccn1 [Compound 97] |
| 4.49 | 4.49 | <4.19 | 5.06 | 4.47 | 4.48 | 5.03 | FC(F)(F)c1cc(C2=NCc3ccc(Cl)cc3-n3cccc32)ccn1 [Compound 98] |
| <4.19 | <4.19 | 5.10 | <4.19 | 4.89 | <4.19 | <4.19 | Cc1ncc(C2=NCc3c(C)cccc3-n3cccc32)cn1 [Compound 99] |
| <4.19 | <4.19 | 4.21 | <4.19 | <4.19 | <4.19 | <4.19 | Cc1ncc(C2=NCc3c(Cl)cccc3-n3cccc32)cn1 [Compound 100] |
| <4.19 | <4.19 | 4.56 | <4.19 | 5.23 | 5.57 | <4.19 | FC(F)(F)c1ncc(C2=NCc3ccccc3-n3cccc32)cn1 [Compound 101] |
| <4.19 | <4.19 | <4.19 | <4.19 | 4.49 | <4.19 | <4.19 | Cc1cccc2c1CN=C(c1cnc(C(F)(F)F)nc1)c1cccn1-2 [Compound 103] |
| 5.54 | <4.19 | <4.19 | <4.19 | 5.91 | <4.19 | <4.19 | FC(F)(F)c1ncc(C2=NCc3c(Cl)cc(Cl)cc3-n3cccc32)cn1 [Compound 104] |
| 5.05 | 4.90 | 5.79 | 5.09 | 6.18 | 5.51 | 5.26 | Cn1ccc2cc(C3=NCc4c(Cl)cccc4-n4cccc43)ccc21 [Compound 106] |
| <4.49 | <4.49 | 4.98 | <4.49 | 5.99 | 5.43 | <4.49 | Cn1nc2ccc(C3=NCc4c(Cl)cccc4-n4cccc43)cc2n1 [Compound 108] |
| <4.19 | <4.19 | <4.19 | <4.19 | 5.70 | 4.37 | 4.34 | Cn1nc2ccc(C3=NCc4c(Cl)cc(Cl)cc4-n4cccc43)cc2n1 [Compound 109] |
| <4.19 | <4.19 | 5.18 | <4.19 | 6.02 | <4.19 | 5.07 | Cc1ccc2cc(C3=NCc4c(Cl)cccc4-n4cccc43)ccc2n1 [Compound 112] |
